Key:
[1] = test system: human neutrophils; assay: Elastase release from fMLF-activated human neutrophils; type: cell-based; settings: Neutrophil; fMLF (0.1 μM)/CB-activated human neutrophils; read-out: IC50, suppression of elastase release
Experimental: (§1) Human neutrophils were obtained in lipopolysaccharide-free conditions by means of dextran sedimentation and Ficoll centrifugation.
MeO-Suc-Ala-Ala-Pro-Val-p-nitroanilide was employed as the elastase substrate for the determination of elastase release. Briefly, after supplementation with Methoxysuccinyl-Ala-Ala-Pro-Val-p-nitroanilide (Ms-Ala-Ala-Pro-Val-pNA) (100 μM), neutrophils (6×10^5/mL) were equilibrated at 37° C. for 2 min and incubated with LS-PH at various concentrations for 5 min. Cells were activated with fMLF (0.1 μM) for 10 min in the pre-process of cytochalasin B (CB, 0.5 μg/mL) for 3 min, and changes in absorbance at 405 nm were continuously monitored to evaluate elastase release. Results are expressed as the percentage of elastase release in the drug-free control group, DMSO.

[2] = test system: human neutrophils; assay: O2•− (superoxide) production in fMLF-activated human neutrophils; type: cell-based; settings: Neutrophil; fMLF (0.1 μM)/CB-activated human neutrophils; read-out: IC50, suppression of superoxide production
Experimental: as §1
O2^•− production was determined based on the SOD-inhibitable reduction of ferricytochrome c. Briefly, neutrophils (6×10^5/mL) were treated with LS-PH at 37° C. at various concentrations (0.03 to 3 μM) for 5 min after being supplementing with 0.5 mg/mL ferricytochrome c and 1 mM Ca^2+. Cells were activated with formyl-L-methionyl-L-leucyl-L-phenylalanine (fMLF, 0.1 μM) for 10 min in the pre-process of cytochalasin B (CB, 1 μg/mL) for 3 min. Changes in absorbance with the reduction of ferricytochrome c at 550 nm were continuously monitored in a double-beam, six-cell positioner spectrophotometer with constant stirring (Hitachi U-3010, Tokyo, Japan). Calculations were based on the differences in the reactions with and without SOD (100 U ml^−1) divided by the extinction coefficient for the reduction of ferricytochrome c (ε=21.1 mM^−1/10 mm).

[3] = biological target: T1, FPR1 (Homo sapiens, UniProt P21462); assay: FPR1 binding assay (FNLFNYK, flow cytometry); settings: neutrophils, FNLFNYK 4 nM, 4° C.; read-out: IC50, suppression of binding of FPR1-specific ligand FNLFNYK
T1 construct: endogenous in cells; host or cells: neutrophils
T1 sequence (P21462 1-350): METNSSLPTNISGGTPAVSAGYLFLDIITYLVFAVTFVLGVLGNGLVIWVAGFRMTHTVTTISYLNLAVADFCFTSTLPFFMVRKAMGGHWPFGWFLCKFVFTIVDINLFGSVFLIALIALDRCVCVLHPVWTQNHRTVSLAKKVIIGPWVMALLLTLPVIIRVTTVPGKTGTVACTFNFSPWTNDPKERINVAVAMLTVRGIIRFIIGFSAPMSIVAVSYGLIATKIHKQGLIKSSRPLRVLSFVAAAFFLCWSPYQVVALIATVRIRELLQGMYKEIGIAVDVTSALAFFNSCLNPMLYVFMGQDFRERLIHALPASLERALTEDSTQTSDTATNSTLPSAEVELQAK
Experimental: Neutrophils (2×10^6 cells/ml) were incubated with various concentrations of compound LS-PH (0.03 to 3 μM) or fMLF (10 μM) at 4° C. for 5 min, and labeled with FPR1-specific ligand […] (4 nM) for 30 min. Then, the binding was determined by use of flow cytometry.

[4] = test system: human neutrophils; assay: Intracellular ROS formation in fMLF-activated human neutrophils; type: cell-based
Experimental: as §1
After supplementation with dihydrorhodamine 123 (2 μM), neutrophils (1×10^6/mL) were equilibrated at 37° C. for 12 min and incubated with LS-PH at various concentrations for 5 min. Cells were activated with fMLF (0.1 μM) for 5 min in the pre-process of cytochalasin B (CB, 0.5 μg/mL) for 3 min. Intracellular ROS was determined by use of flow cytometer.

[5] = test system: human neutrophils; type: cell-based; settings: 0.03 to 3 μM
Experimental: Cytotoxicity of LS-PH towards neutrophils was evaluated by measuring the level of lactate dehydrogenase (LDH) using a commercial kit (Promega). LDH is a cytosolic enzyme that is released only when cell membrane is disrupted (i.e., cell death), thus may be used as an indicator of cell viability. The kit measures a color change at (λmax=450 nm) when LDH reduces NAD to NADH. Cytotoxicity was expressed as the percent LDH activity obtained in cell-free medium compared to the total LDH activity. Total LDH activity was determined by lysing cells with 0.1% Triton X-100 for 30 min at 37° C.

SMILES: C=C(C)C1CCC2(C(=O)O)CC[C@]3(C)[C@H](CC[C@@H]4[C@@](C)(CCC(=O)O)[C@H](C(=C)C)CC[C@]43C)C12 (some centres unmarked) [LS-PH, (E) 3,4-Seco-4(23), 20(29)-lupadiene-3,28-dioic acid]
- IC50 [1]: ~710 nM
- IC50 [2]: ~260 nM
- IC50 [3]: ~1720 nM
- suppression of fMLF-induced intracellular ROS formation [4]: suppress fMLF-induced intracellular ROS formation
- cytotoxicity (LDH release) [5]: did not exhibit detectable cytotoxicity
